{"source": "patent US12303898B2", "about": "“Microfluidic devices and methods of use” (The Governing Council of the University of Toronto, priority 2018, dated 2025)", "key": {"QPCT target loci": {"test_system": "QPCT target loci", "experiment": "CRISPR editing analysis (TIDE / ICE) of double-sgRNA infected samples, QPCT target loci", "format": "cell-based, human", "conditions": "two independent experiments; for KO-score: ICE; for mean percent edited: TIDE", "procedure": "(§1) Generation of CD47, QPCT and QPCTL knock-out cells. For transduction experiments using cell pools, single-stranded sgRNA oligos were annealed using T4 PNK in T4 ligation buffer (both NEB), and ligated into digested (BsmBI; NEB), phosphatase-treated (rSAP or CIP, NEB) and gel-purified modified pLCKO (for HAP1-Cas9) or pLCV2 (for HAP1, 293T and KMS11) backbones^24,25 using T4 DNA ligase. All plasmids were Sanger sequence verified and virus was prepared and titered as described above. HAP1, HAP1-Cas9 cells, 293T cells or KMS11 cells were infected with target and control gRNAs (MOI<1) in presence of 8 μg/ml polybrene. 24 h post infection, the medium was replaced with fresh medium containing puromycin (1 ug/ml for HAP1 and HAP1-Cas9, 1-2 ug/ml for 293T, 0.5 ug/ml for KMS11) and cells were incubated for 48 h. Cells were further cultured in selection-free medium as indicated for individual experiments (typically T3-T6), and passaged every 3-4 days. […] For infections with two sgRNAs (HAP1-Cas9 only), the second sgRNA was cloned into pLCKO hygro. Selection was carried out in puromycin (1 ug/ml) and hygromycin (800 ug/ml)-containing medium for the first 48 h, then in hygromycin-only medium for further 4-5 days. For single-cell knock-out clones (HAP1 only), sgRNAs were cloned into modified PX459v2.0 (from Addgene #62988, 1 kb stuffer sequence added). HAP1 cells were transfected using Lipofectamine 3000 (3.75 μl and 2.3 μg plasmid per 6-well), selected with puromycin for 48 h as above and seeded in limiting dilutions (1 cell/100 μl/96-well) 3 days later. Single-cell colonies were expanded, cryo-banked (in standard medium with 10% DMSO and a total of 20% FBS) and analyzed for mutations as described below. An sgRNA targeting the AAVS1 locus was used as negative control.\nCRISPR editing analysis. For analysing indels after CRISPR-mediated editing, genomic DNA was isolated using the QIAamp DNA Blood Mini kit (Qiagen) or the Extracta DNA Prep kit (Quantabio). sgRNA target regions (100-200 bp up- and 500 bp downstream of sgRNA sequence) were amplified by touchdown PCR (−0.5° C./cycle from 72° C. to 60° C. plus 10 additional cycles at 59° C.) from 50-100 ng input DNA, PCR products were purified using the PureLink Quick PCR purification kit (Invitrogen) if necessary and analyzed by Sanger sequencing. Sequences were analyzed to determine the percentage of edited sequences contained in the sample using TIDE^49 and a “KO-score” using ICE^50 (Synthego). Non-edited cells amplified with the same primers were used as control samples. A representative analysis of double-sgRNA infected samples from two independent experiments yielded the following editing results for QPCT and QPCTL target loci (by sgRNA; mean percent edited/KO-score±SD): QPCTL #1 58.2/NA±16.2/N, QPCTL #2 33.23/47±32.96/0, QPCT #1 33.15/56±36.51/0, QPCT #2 80.2/76.4±19.85/2.42, QPCT #3 68.18/36.33±4.29/2.08; AAVS1/CD47 #1 (background or off-target, mean±SD over all QPCT and QPCTL target loci) 14.4/1.33±14.95/0.58. For single-cell derived clones, TIDE and ICE were used for screening purposes, and mutations were independently confirmed by PCR, Sanger sequencing and sequence alignment as described."}, "QPCTL target loci": {"test_system": "QPCTL target loci", "experiment": "CRISPR editing analysis (TIDE / ICE) of double-sgRNA infected samples, QPCTL target loci", "format": "cell-based, human", "conditions": "two independent experiments; for mean percent edited: TIDE", "procedure": "as §1, with “For single-cell knock-out clones (HAP1 only), sgRNAs were cloned into modified PX459v2.0 (from Addgene #62988, 1 kb stuffer sequence added). HAP1 cells were transfected using Lipofectamine 3000 (3.75 μl and 2.3 μg plasmid per 6-well), selected with puromycin for 48 h as above and seeded in limiting dilutions (1 cell/100 μl/96-well) 3 days later.” left out, “An sgRNA targeting the AAVS1 locus was used as negative control.” left out\nCRISPR editing analysis. For analysing indels after CRISPR-mediated editing, genomic DNA was isolated using the QIAamp DNA Blood Mini kit (Qiagen) or the Extracta DNA Prep kit (Quantabio). sgRNA target regions (100-200 bp up- and 500 bp downstream of sgRNA sequence) were amplified by touchdown PCR (−0.5° C./cycle from 72° C. to 60° C. plus 10 additional cycles at 59° C.) from 50-100 ng input DNA, PCR products were purified using the PureLink Quick PCR purification kit (Invitrogen) if necessary and analyzed by Sanger sequencing. Sequences were analyzed to determine the percentage of edited sequences contained in the sample using TIDE^49 and a “KO-score” using ICE^50 (Synthego). […]"}, "CD47": {"test_system": "CD47", "experiment": "Validation of CD47 sgRNA knock-out HAP1 cell lines by flow cytometry and microfluidic sorting", "format": "cell-based, human", "conditions": "HAP1 cells, CD47 gene (FIG. 11C)", "source_text": "As shown in FIG. 11A-C, this included sorting the wildtype (WT) HAP1 cells at different flow rates to decide on the ideal operating conditions, assessing the sorting of HAP1 cells transduced with sgRNAs targeting the CD47 gene (which should result in a decrease in the number of CD47+ cells), and mixing WT and clone cells together, sorting them and recovering the initial ratios. Experimental parameters were designed to have the majority of WT HAP1s be sorted into the middle bin thus upregulation and downregulation of CD47 could be assessed. […]\nMICS sorting. […] Cells were sorted by MICS at a concentration of ˜5×10^6 cells/ml in HBSS with 2% BSA; initial cell concentration was measured using a Countess Automated Cell Counter (Invitrogen). […] Sorted samples were collected in their respective syringes, and the volume of solution collected in each syringe was measured by weight. […] Each sample was then loaded onto a 10-chambered microscope slide (Quick Read 3805, Globe Scientific) and cells were counted under fluorescent excitation using a custom counting macro and a Nikon TI Eclipse microscope. Sort efficiency was calculated by dividing the number of cells collected in the medium and high outlets by the total number of cells collected (low, medium and high). […]"}, "QPCTL": {"target": "T1, QPCTL (Homo sapiens, UniProt Q9NXS2)", "T1 construct": "endogenous in cells; host or cells: HAP1 cells (Horizon, clone C631)", "T1 sequence (Q9NXS2 whole entry)": "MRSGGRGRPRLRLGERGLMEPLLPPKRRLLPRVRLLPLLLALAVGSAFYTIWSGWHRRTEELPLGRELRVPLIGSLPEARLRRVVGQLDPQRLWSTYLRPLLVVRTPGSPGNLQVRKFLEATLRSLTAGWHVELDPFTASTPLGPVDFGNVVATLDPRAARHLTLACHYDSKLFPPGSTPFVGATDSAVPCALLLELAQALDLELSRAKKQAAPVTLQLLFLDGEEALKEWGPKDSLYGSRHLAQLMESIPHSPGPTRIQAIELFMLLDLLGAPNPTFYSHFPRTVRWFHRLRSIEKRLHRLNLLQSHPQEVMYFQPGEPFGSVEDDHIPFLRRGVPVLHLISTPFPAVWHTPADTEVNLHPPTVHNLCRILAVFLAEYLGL", "experiment": "Flow cytometry and immunofluorescence of CD47 antibody binding in HAP1 cells after QPCTL inhibitor treatment", "format": "cell-based", "conditions": "inhibitor treatment (FIG. 14B, 14D, 14E), CC2C6 detects pyro-Glu modified CD47", "quoted_text": "Flow cytometry. Cells were dissociated with 0.125% trypsin and washed once in once in Flow buffer (PBS with 2% BSA). For cell-surface analysis, antibody staining was carried out in Flow buffer for 30 min on ice at 4° C. in the dark. For intracellular antigens, cells were first fixed with 4% PFA (Electron Microscopy Sciences) in PBS for 10 min on ice, followed by permeabilization using Flow buffer with 0.1% TritonX-100 (Sigma) for 5 min at room temperature. Cells were washed twice with Flow buffer, followed by staining for 30 min on ice at 4° C. in the dark. Stained cells were washed thrice with Flow buffer and 7-AAD viability dye (3-5 μl, BioLegend) was added before quantification. […] Stained cells were quantified on an LSRII flow cytometer (BD Biosciences) or an iQue Screener PLUS (IntelliCyt), and data were analyzed using FlowJo software (RRID:SCR_008520). […]\nImmunofluorescence microscopy. […] For mean fluorescence intensity (MFI) measurements, Membrite™ staining intensity was used for automated image segmentation (ImageJ custom macro, available upon request) for operator independent unbiased selection of primary regions of interest (ROI) masks (in the green channel) and the mean fluorescence intensity was measured from the APC and/or Alexa594 channel. […]"}}, "data": [{"molecule": "QPCT #1: sgRNA from the TKOv3 library, sequence TCAAGGATCACTCTTTGGAG (chemistry not fully specified)", "values": [{"measurement": "KO-score", "setting": "QPCT target loci", "value": 56}, {"measurement": "mean percent edited", "setting": "QPCT target loci", "value": 33.15, "unit": "%"}]}, {"molecule": "QPCTL #1: sgRNA from the TKOv3 library, sequence GGGTTCGCACAACCAGCAGG (chemistry not fully specified)", "values": [{"measurement": "mean percent edited", "setting": "QPCTL target loci", "value": 58.2, "unit": "%"}]}, {"molecule": "Guide #4: sgRNA targeting CD47 from the TKOv3 library, sequence GAAGACTATACAACCTCCTA (chemistry not fully specified)", "values": [{"measurement": "gene inactivation", "setting": "CD47", "value": "ineffective at gene inactivation"}]}, {"molecule": "QPCTL #2: sgRNA from the TKOv3 library, sequence ACAGGGCACAGCCGAATCCG (chemistry not fully specified)", "values": [{"measurement": "KO-score", "setting": "QPCTL target loci; ICE", "value": 47}, {"measurement": "mean percent edited", "setting": "QPCTL target loci", "value": 33.23, "unit": "%"}]}, {"molecule": "QPCT #2: sgRNA from the TKOv3 library, sequence AGAGGCACCAGCCAACTGCA (chemistry not fully specified)", "values": [{"measurement": "KO-score", "setting": "QPCT target loci", "value": 76.4}, {"measurement": "mean percent edited", "setting": "QPCT target loci", "value": 80.2, "unit": "%"}]}, {"molecule": "QPCT #3: sgRNA from the TKOv3 library, sequence GACCAAATGTCGTTTAGCAG (chemistry not fully specified)", "values": [{"measurement": "KO-score", "setting": "QPCT target loci", "value": 36.33}, {"measurement": "mean percent edited", "setting": "QPCT target loci", "value": 68.18, "unit": "%"}]}, {"molecule": "CCCOc1ccc([C@H]2CNC(=O)N2c2ccc3[nH]cnc3c2)cc1", "note": "[PQ912]", "values": [{"measurement": "CC2C6 binding", "setting": "QPCTL", "value": "decreased"}]}]}
